Measurements reported in patent publication US10702518B2, “TAF1 inhibitors for the therapy of cancer” (CeMM—Forschungszentrum für Molekulare Medizin GmbH, priority 2016, dated 2020).
“Also recorded” adds a separate entry of the source.

Legend:
[1] = system: KBM7 cells; assay: CellTiterGlo viability of control and TAF1 downregulated KBM7 cells; conditions: shRNA TAF1 vs control, 96 hours
[2] = molecular target: T1, TAF1 (Homo sapiens, UniProt P21675); assay: TAF1 binding assay (FRET/HTRF peptide displacement); conditions: FRET analysis, data not shown
T1 construct: TAF1 second bromodomain (Uniprot P21675, residues 1501-1634); made in house; host or cells: E. coli BL21 (DE3)-R3-pRARE2 (stated for the His-tagged construct)
T1 sequence (P21675 1501-1634): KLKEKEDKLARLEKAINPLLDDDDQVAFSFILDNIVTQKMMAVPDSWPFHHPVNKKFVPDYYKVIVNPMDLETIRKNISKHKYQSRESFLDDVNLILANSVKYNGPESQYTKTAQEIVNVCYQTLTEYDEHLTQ
Protocol: TAF1 binding assays were conducted using the EPIgeneous™ Binding Domain kit B (Cisbio Bioassays) according to manufacturer's instructions. Binding was determined by the displacement of an acetylated biotin-peptide from a GST tagged TAF1 protein using HTRF with a Eu3+ conjugated GST antibody donor and streptavidin conjugated acceptor. Compounds were dispensed into assay plates, ProxiPlate-384 Plus (Perkin Elmer) using an Echo 525 Liquid Handler (Labcyte). Binding assays were conducted in a final volume of 20 μl with 5 nM TAF1-GST, 50 nM peptide (SGRGK (ac)GGK (ac)GLGK (ac)GGAK (ac)RHRK (biotin)-acid), 6.25 nM Streptavidin-XL665, 1:200 Anti-GST-Eu3+ cryptate and 0.1% DMSO. Assay reagents were dispensed into plates using a Multidrop combi (Thermo Scientific) and incubated at room temperature for 3 hours. Fluorescence was measured using a PHERAstar microplate reader (BMG) using the HTRF module with dual emission protocol (A=ex. 320 nm em. 665 nm, B=ex. 320 nm em. 620 nm). Raw data were processed to give an HTRF ratio (channel A/B*10000), which was used to generate IC50 curves.

[3] = system: REDS3 cells; assay: RFP reporter expression in REDS3 cells (live cell imaging); assay type: cell-based, human; conditions: for RFP expression in REDS3 cells: single agent
Protocol: Cells were seeded on clear flat bottom 96-well or 384-well plates (Corning) and treated with the indicated compounds for the specified conditions. Live cell imaging pictures were taken with the Operetta High Content Screening System (PerkinElmer), 20× objective and non-confocal mode.
Only RFP-positive nuclei were detected and counted.
The increase of RFP fluorescence, detected with the Operetta High Content Screening System (PerkinElmer), 20× objective and non-confocal mode, was used as read-out.
Briefly, the screening was divided in three parts called respectively 1) primary screening, 2) follow up and 3) validation. During the primary screening REDS3 cells were treated with 10 μM of every compound, and live cell imaging pictures were taken in order to assess their ability to induce RFP expression 24 hours later.

[4] = system: H23 cells; assay: Cell viability of H23 cells, combination with (S)-JQ1; assay type: cell-based
[5] = system: THP1 cells; assay: Cell cycle assay in THP1 cells; conditions: 48 hours
Protocol: (e) Quantification of cells in S-phase by staining the nuclei with PI and analyzing DNA content by FACS. […] Three different biological replicates were performed and 30,000 cells were analysed each time (mean±STD).
For cell cycle analysis, cells were fixed with 70% ethanol for 24 hours, washed with PBS/0.1%-Tween and incubated with RNase for 20 minutes. Nuclei were stained with 5 μg/ml PI (propidium iodide, Sigma) for 10 minutes prior to FACS analysis (BD FACSCalibur Flow Cytometer).

[6] = molecular target: T2, BRD4 (BD2) (Homo sapiens, UniProt O60885); assay: AlphaLISA, second bromodomain of BRD4; assay type: binding; conditions: 10 μM
T2 construct: AlphaLISA assays for the first (black columns, BD1) and the second (grey columns, BD2) bromodomains of BRD4
From the text: (§4) The Amplified Luminescent Proximity Homogenous Assay (AlphaLISA©) is the homogenous and chemiluminescence-based method, used to explore the direct interaction of the identified small molecules with BRD4 and therefore, measure the IC50 values of the direct BRD4 inhibitors.
(§5) Briefly, in this assay, the biotinylated histone peptide substrate is captured by streptavidin-coupled donor beads. The GST-tagged bromodomain is recognized and bound by an anti-GST antibody conjugated with an acceptor bead. In absence of an inhibitor, the bromodomain binds to histone peptide substrate. […] The event of a signal (alpha count) can only take place when the interaction partners are in proximity (<200 nm).
(§6) The AlphaLISA was performed for both bromodomains of BRD4 using the BRD4 (BD1) Inhibitor Screening Kit (BPS Bioscience) and BRD4 (BD2) Inhibitor Screening Kit (BPS Bioscience) following the manufacturer's protocol. For the GST full length BRD4 purified from BL21 cells, a mixture of acetylated substrates from the BD1 and BD2 Inhibitor Screening Kit reported above was used.
(§7) Compounds were tested at a final assay concentration of 10 μM in duplicates. […] Reaction was initiated by adding one of the two bromodomains (BD1 or BD2) or the GST full length BRD4. […]

[7] = system: THP1 cells; assay: AnnexinV apoptosis assay in THP1 cells; conditions: 72 hours
Protocol: (f) Quantification of AnnexinV positive cells from immunofluorescence images. […] At least 3 biological replicates were performed and more than 1,500 cells were quantified for each point (mean±STD).
Apoptotic cells were detected using the Annexin V-FITC Apoptosis detection kit (Abcam) according to the manufacturer's instruction. Apoptosis quantification was performed with the Harmony software (PerkinElmer) for nuclei and cytoplasm detection and analysis, adapted for the nucleus diameter range and cell shape of the specific cell line used.

[8] = molecular target: T3, BRD4 (BD1) (Homo sapiens, UniProt O60885); assay: AlphaLISA, first bromodomain of BRD4; assay type: binding; conditions: 10 μM
T3 construct: AlphaLISA assays for the first (black columns, BD1) and the second (grey columns, BD2) bromodomains of BRD4
From the text: as §4, §5, §6, §7

[9] = molecular target: T4, EP300 (Homo sapiens, UniProt Q09472); assay: BromoScan / BromoKdELECT, EP300; assay type: binding
T4 sequence (Q09472 1049-1156 limits assumed): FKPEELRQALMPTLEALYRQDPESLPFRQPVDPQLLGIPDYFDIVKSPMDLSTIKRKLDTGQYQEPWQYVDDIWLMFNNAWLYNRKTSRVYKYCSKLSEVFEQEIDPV
Protocol: (§1) Bubbles indicate the percentage of inhibition of the binding of the analyzed bromodomains to an acetylated substrate. […] (g) BromoKdELECT assay for CeMMEC1 against TAF1 (2). […] (i) Docking of CeMMEC1 to the second bromodomain of TAF1. 3D model (top panel) and 2D ligand interaction diagram (bottom panel). Red dots in the 3D model indicate water molecules.
(§2) (c) not used (d) KinomeScan profile for CeMMEC1 (10 μM). Bubbles indicate the percentage of inhibition of the binding of the analyzed kinase to an immobilized ligand.

[10] = system: THP1 cells; assay: Cell viability of THP1 cells, combination with (S)-JQ1; assay type: cell-based, human
[11] = molecular target: CREBBP (Homo sapiens, UniProt Q92793); assay: BromoScan / BromoELECT / BromoKdELECT, CREBBP; assay type: binding; conditions: for binding to CREBBP: BromoScan/BromoELECT, 10 μM
Protocol: as §1, §2

[12] = molecular target: T5, TAF1 (2) (Homo sapiens, UniProt P21675); assay: BromoScan / BromoELECT / BromoKdELECT, TAF1 (2); assay type: binding; conditions: for binding to TAF1 (2): BromoScan/BromoELECT
T5 construct: the second bromodomain of TAF1 (TAF1 (2)); purchased DiscoverX Corporation (contract assay); host or cells: T7 phage in E. coli host derived from BL21
T5 sequence (P21675 1519-1628 limits assumed): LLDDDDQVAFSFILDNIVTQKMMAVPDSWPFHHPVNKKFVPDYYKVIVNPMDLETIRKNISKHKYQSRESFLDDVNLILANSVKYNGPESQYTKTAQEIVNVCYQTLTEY
Protocol: as §1, §2

[13] = molecular target: T6, BRD9 (Homo sapiens, UniProt Q9H8M2); assay: BromoScan / BromoKdELECT, BRD9; assay type: binding
T6 sequence (Q9H8M2 136-240 limits assumed): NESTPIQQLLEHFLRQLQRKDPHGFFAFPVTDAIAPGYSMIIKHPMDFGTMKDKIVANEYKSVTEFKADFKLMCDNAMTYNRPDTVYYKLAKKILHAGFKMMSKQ
Protocol: as §1, §2

[14] = system: c-MYC expression in WT-KBM7; assay: c-MYC expression by RT-PCR in WT-KBM7; assay type: cell-based, human; conditions: 1, 10 and 20 μM, 24 hours
Protocol: (c) Percentage of c-MYC expression in WT-KBM7 treated with the selected compounds, assessed by RT-PCR. 1, 10 and 20 μM of each compound were used to treat cells for 24 hours; DMSO was used as negative control and (S)-JQ1 as positive control. Three biological replicates were performed (mean±STD).
RNA extraction was performed with TRIzol Reagent (Life Technologies) according to the manufacturer's protocol and Reverse Transcription (RT) was performed using the High Capacity cDNA Reverse Transcription Kit (Applied Biosystems) following the standard protocol.
QPCR was performed using the Power SYBR Green Master mix (Invitrogen) as described in the manufacturer's protocol.
Real-time amplification results were normalized to the endogenous housekeeping genes Actin or GAPDH. The relative quantities were calculated using the comparative CT (Cycle Threshold) Method (ΔΔCT Method).

[15] = system: 97 representative kinases; assay: KinomeScan profile; assay type: binding; conditions: 10 μM; 97 kinases
Protocol: (§3) . The assay was done in duplicate (mean±STD); (b) BromoKdELECT assay for CeMMEC1 against TAF1 (2), BRD9, CREBBP and EP300 bromodomains (11 dilutions, from 10 to 0.017 μM). (c) not used (d) KinomeScan profile for CeMMEC1 (10 μM). Bubbles indicate the percentage of inhibition of the binding of the analyzed kinase to an immobilized ligand. (e) BromoELECT assay for CeMMEC1 and analogs A1, A2, 05, 10, 13, 24, 25, 26, 27, 29, 33 and 39 (10 μM) against BRD4 (1), BRD4 (2), BRD9, CREBBP, EP300 and TAF1 (2). (f, g) Docking poses of analog 30 to TAF1 (green) and BRD4 (magenta). (h) Docking of compound 29 to TAF1, no suitable pose could be identified for BRD4. (i) BromoELECT assay for analog 29 (10 μM) against BRD4 (1), BRD9, CREBBP, EP300 and TAF1 (2).

[16] = molecular target: BRD4 (Homo sapiens, UniProt O60885); assay: BromoScan profile, BRD4; assay type: binding; conditions: 10 μM
From the text: as §1

[17] = molecular target: T7, TAF1(BD2) (Homo sapiens, UniProt P21675); assay: BROMOscan binding constant determination for TAF1(BD2); conditions: 11-point 3-fold dilution series, read-out: TAF1_BD2 (IC50 μM)
T7 construct: the second bromodomain of TAF1 (TAF1 (2)); purchased DiscoverX Corporation (contract assay); host or cells: T7 phage in E. coli host derived from BL21
T7 sequence (P21675 1519-1628 limits assumed): T5 sequence (P21675 1519-1628 limits assumed)
Protocol: Bromodomain assays: T7 phage strains displaying bromodomains were grown in parallel in 24-well blocks in an E. coli host derived from the BL21 strain. E. coli were grown to log-phase and infected with T7 phage from a frozen stock (multiplicity of infection=0.4) and incubated with shaking at 32° C. until lysis (90-150 minutes). The lysates were centrifuged (5,000×g) and filtered (0.2 μm) to remove cell debris. Streptavidin-coated magnetic beads were treated with biotinylated small molecule or acetylated peptide ligands for 30 minutes at room temperature to generate affinity resins for bromodomain assays. The liganded beads were blocked with excess biotin and washed with blocking buffer (SeaBlock (Pierce), 1% BSA, 0.05% Tween 20, 1 mM DTT) to remove unbound ligand and to reduce non-specific phage binding. […] Test compounds were prepared as 1000× stocks in 100% DMSO. Kds were determined using an 11-point 3-fold compound dilution series with one DMSO control point. […] The compounds were then diluted directly into the assays such that the final concentration of DMSO was 0.09%. All reactions performed in polypropylene 384-well plates. Each was a final volume of 0.02 ml. […] The bromodomain concentration in the eluates was measured by qPCR.
Compound handling: An 11-point 3-fold serial dilution of each test compound was prepared in 100% DMSO at 1000× final test concentration. […] The compounds were then diluted directly into the assays such that the final concentration of DMSO was 0.09%. Most Kds were determined using a compound top concentration=10,000 nM. If the initial Kd determined was <0.169 nM (the lowest concentration tested), the measurement was repeated with a serial dilution starting at a lower top concentration.
Binding constants (Kds) were calculated with a standard dose-response curve using the Hill equation: […]
The Hill Slope was set to −1. Curves were fitted using a non-linear least square fit with the Levenberg-Marquardt algorithm.
The results thus obtained are reported in the following table as IC50 values [μM] for TAF1(BD2).

[18] = system: bromodomains of BRD4 (1), BRD4 (2), BRD9, CREBBP, EP300 and TAF1 (2); assay: BromoELECT bromodomain panel; assay type: binding; conditions: 10 μM
Protocol: as §3

CREBBP, sequence (Q92793 1085-1192 limits assumed): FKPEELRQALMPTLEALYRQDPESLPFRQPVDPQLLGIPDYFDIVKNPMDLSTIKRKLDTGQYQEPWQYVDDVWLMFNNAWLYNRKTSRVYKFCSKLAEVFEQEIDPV

Cn1cc(C(=O)Nc2ccc3c(c2)OCCO3)c2ccccc2c1=O [CeMMEC1]
cell viability with TAF1 downregulation [1]: impaired cell viability in TAF1 downregulated cells
displacement of tetra-acetylated H4 peptide from TAF1 binding site [2]: displaced a tetra-acetylated H4 peptide with good efficacy
RFP expression in REDS3 cells in combination with (S)-JQ1 [3]: further boosted RFP expression beyond the increase in single treatments
RFP expression in REDS3 cells [3]: expressed RFP detected by live cell imaging in a dose-dependent manner; also recorded: comparable induction of RFP expression in REDS3 cells
cell viability, combination with (S)-JQ1 [4]: more efficiently impairing cell viability than the individual treatments
synergy with (S)-JQ1 (Bliss independence test) [4]: confirmed the synergism
number of cells in S-phase [5]: clear and dose-dependent decrease of the number of cells in S-phase
binding to the second bromodomain of BRD4 [6]: neither able to bind the first nor the second bromodomain of BRD4
apoptosis (AnnexinV staining) [7]: induced apoptosis
binding to the first bromodomain of BRD4 [8]: neither able to bind the first nor the second bromodomain of BRD4
binding constant, EP300 ([9]; BromoKdELECT (FIG. 8b)): sub-micromolar binding constants
binding to EP300 ([9]; BromoScan, 10 μM): high affinity
cell viability, combination with (S)-JQ1 [10]: more efficiently impairing cell viability than the individual treatments
synergy with (S)-JQ1 (Bliss independence test) [10]: confirmed the synergism
binding constant, CREBBP ([11]; BromoKdELECT (FIG. 8b)): sub-micromolar binding constants
binding to CREBBP [11]: high affinity
binding constant, TAF1 (2) ([12]; BromoKdELECT (FIG. 8b)): sub-micromolar binding constants
Kd ([12]; BromoKdELECT assay (FIG. 4g)): 1400 nM
binding to TAF1 (2) ([12]; 10 μM): high affinity
binding constant, BRD9 ([13]; BromoKdELECT (FIG. 8b)): sub-micromolar binding constants
binding to BRD9 ([13]; BromoScan, 10 μM): high affinity
c-MYC expression [14]: capable of reducing the expression of this oncogene in a dose-dependent manner
inhibition of kinases [15]: ≤ 60%
binding to BRD4 [16]: only bound BRD4 very weakly

Cn1c(=O)cc(C(=O)Nc2ccc3c(c2)OCCO3)c2ccccc21 [Compound 29]
RFP expression in REDS3 cells in combination with (S)-JQ1 [3]: further boosted RFP expression beyond the increase in single treatments
RFP expression in REDS3 cells [3]: comparable induction of RFP expression in REDS3 cells
synergy with (S)-JQ1 (Bliss independence test) [4]: the most effective
synergy with (S)-JQ1 (Bliss independence test) [10]: the most effective
binding to CREBBP [11]: lost all affinity to CREBBP
selectivity among BRD4 (1), BRD9, CREBBP, EP300 and TAF1 (2) ([12]; BromoELECT, 10 μM): high selectivity for the TAF1 (2) bromodomain
binding to TAF1 (2) ([12]; 10 μM): retaining TAF1 activity
IC50 [17]: 3.1 µM

Cc1nnc2ccc(NCCC3=CCCCC3)nn12 [CeMMEC2]
cell viability with TAF1 downregulation [1]: synergism
number of cells in S-phase [5]: clear and dose-dependent decrease of the number of cells in S-phase
apoptosis (AnnexinV staining) [7]: induced apoptosis
c-MYC expression [14]: capable of reducing the expression of this oncogene in a dose-dependent manner

Cn1cc(C(=O)Nc2ccc3c(c2)OCCO3)c(=O)[nH]c1=O [Compound 35]
RFP expression in REDS3 cells in combination with (S)-JQ1 [3]: The same effect was not achieved
RFP expression in REDS3 cells [3]: nor did they induce RFP expression in REDS3 cells
binding to the tested bromodomain proteins [18]: bound neither of the tested bromodomain proteins

Cn1cc(C(=O)Nc2ccc3c(c2)OCCO3)c(=O)n(C)c1=O [Compound 32]
RFP expression in REDS3 cells in combination with (S)-JQ1 [3]: The same effect was not achieved
RFP expression in REDS3 cells [3]: nor did they induce RFP expression in REDS3 cells
binding to the tested bromodomain proteins [18]: bound neither of the tested bromodomain proteins
